The source made the active and inactive calls.
What follows are molecules tested against Mitotic checkpoint serine/threonine-protein kinase BUB1 (Homo sapiens, UniProt O43683).
Also: in the data inactive means no Kd found up to 30 µM.

Sequence of Mitotic checkpoint serine/threonine-protein kinase BUB1 (O43683 whole entry): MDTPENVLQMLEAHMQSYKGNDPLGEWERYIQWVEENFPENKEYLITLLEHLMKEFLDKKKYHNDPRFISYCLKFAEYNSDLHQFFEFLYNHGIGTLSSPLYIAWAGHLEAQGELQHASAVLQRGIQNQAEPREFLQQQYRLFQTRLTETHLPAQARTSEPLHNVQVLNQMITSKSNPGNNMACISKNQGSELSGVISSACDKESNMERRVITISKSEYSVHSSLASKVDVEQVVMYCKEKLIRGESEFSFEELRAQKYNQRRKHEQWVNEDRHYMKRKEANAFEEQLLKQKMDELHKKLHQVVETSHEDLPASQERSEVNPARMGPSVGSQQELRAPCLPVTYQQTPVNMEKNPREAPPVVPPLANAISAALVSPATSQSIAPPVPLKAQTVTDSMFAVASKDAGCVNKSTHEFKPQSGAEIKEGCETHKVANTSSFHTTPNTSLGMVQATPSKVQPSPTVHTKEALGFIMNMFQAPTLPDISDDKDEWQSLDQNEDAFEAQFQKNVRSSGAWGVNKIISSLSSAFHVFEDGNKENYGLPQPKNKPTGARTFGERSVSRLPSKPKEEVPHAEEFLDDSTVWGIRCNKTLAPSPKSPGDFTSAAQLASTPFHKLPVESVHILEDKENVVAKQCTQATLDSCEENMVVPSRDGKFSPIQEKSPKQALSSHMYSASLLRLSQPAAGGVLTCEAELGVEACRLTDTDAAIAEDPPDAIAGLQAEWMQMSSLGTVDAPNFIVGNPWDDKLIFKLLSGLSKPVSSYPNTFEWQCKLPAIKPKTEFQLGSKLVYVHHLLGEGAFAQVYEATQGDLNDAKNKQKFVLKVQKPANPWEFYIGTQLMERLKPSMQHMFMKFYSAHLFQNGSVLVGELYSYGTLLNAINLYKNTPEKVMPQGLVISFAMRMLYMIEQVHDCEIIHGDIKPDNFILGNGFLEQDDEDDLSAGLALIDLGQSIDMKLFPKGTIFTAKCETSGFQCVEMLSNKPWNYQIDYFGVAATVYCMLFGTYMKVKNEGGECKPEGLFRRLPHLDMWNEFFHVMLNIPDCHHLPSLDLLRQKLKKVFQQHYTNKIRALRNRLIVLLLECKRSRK

SMILES | Kd
Cc1cn(-c2cc(NC(=O)c3ccc(C)c(Nc4nccc(-c5cccnc5)n4)c3)cc(C(F)(F)F)c2)cn1 [NILOTINIB] | > 30 µM (inactive)
OCCn1cc(-c2cnc3nnn(Cc4ccc5ncccc5c4)c3n2)cn1 [PF-04217903] | > 30 µM (inactive)
Nc1nc(N)c2nc(-c3cccc(O)c3)c(-c3cccc(O)c3)nc2n1 [TG100-115] | > 30 µM (inactive)

The molecules below were run against T1, Ferrochelatase, mitochondrial (Homo sapiens, UniProt P22830).
T1 sequence (P22830 whole entry): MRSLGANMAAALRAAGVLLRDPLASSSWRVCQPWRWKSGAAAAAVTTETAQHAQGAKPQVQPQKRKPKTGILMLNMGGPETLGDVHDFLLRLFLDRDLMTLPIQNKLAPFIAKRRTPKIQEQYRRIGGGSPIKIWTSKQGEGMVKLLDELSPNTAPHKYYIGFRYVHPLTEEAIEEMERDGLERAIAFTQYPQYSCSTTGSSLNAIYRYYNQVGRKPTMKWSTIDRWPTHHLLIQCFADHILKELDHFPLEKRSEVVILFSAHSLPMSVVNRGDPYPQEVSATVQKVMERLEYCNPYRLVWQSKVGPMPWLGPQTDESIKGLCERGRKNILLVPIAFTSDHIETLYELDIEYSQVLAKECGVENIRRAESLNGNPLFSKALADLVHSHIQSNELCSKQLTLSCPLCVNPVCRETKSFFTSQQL

SMILES | Kd
OCCn1cc(-c2cnc3nnn(Cc4ccc5ncccc5c4)c3n2)cn1 [PF-04217903] | > 30 µM (inactive)
Nc1nc(N)c2nc(-c3cccc(O)c3)c(-c3cccc(O)c3)nc2n1 [TG100-115] | > 30 µM (inactive)

Each molecule was assayed against T2, Interleukin-1 receptor-associated kinase 3 (Homo sapiens, UniProt Q9Y616).
T2 sequence (Q9Y616 whole entry): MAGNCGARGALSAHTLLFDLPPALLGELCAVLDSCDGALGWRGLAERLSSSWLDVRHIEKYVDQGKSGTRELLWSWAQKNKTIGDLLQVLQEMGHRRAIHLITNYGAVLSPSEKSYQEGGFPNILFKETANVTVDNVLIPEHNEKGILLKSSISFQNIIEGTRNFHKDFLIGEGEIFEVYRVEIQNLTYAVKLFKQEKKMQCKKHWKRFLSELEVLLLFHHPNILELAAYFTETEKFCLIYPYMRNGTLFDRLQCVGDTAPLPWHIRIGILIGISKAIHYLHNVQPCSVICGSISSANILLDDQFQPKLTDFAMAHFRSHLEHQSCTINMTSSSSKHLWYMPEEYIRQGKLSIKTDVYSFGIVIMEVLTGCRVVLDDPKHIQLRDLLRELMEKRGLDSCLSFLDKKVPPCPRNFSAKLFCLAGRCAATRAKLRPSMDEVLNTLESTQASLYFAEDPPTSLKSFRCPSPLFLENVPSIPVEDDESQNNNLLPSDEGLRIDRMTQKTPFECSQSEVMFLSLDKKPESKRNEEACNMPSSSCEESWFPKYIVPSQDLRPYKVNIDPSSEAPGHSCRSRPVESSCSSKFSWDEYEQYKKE

SMILES | Kd
OCCn1cc(-c2cnc3nnn(Cc4ccc5ncccc5c4)c3n2)cn1 [PF-04217903] | > 30 µM (inactive)

What follows are molecules tested against Mitogen-activated protein kinase kinase kinase kinase 5 (Homo sapiens, UniProt Q9Y4K4).
Sequence of Mitogen-activated protein kinase kinase kinase kinase 5 (Q9Y4K4 whole entry): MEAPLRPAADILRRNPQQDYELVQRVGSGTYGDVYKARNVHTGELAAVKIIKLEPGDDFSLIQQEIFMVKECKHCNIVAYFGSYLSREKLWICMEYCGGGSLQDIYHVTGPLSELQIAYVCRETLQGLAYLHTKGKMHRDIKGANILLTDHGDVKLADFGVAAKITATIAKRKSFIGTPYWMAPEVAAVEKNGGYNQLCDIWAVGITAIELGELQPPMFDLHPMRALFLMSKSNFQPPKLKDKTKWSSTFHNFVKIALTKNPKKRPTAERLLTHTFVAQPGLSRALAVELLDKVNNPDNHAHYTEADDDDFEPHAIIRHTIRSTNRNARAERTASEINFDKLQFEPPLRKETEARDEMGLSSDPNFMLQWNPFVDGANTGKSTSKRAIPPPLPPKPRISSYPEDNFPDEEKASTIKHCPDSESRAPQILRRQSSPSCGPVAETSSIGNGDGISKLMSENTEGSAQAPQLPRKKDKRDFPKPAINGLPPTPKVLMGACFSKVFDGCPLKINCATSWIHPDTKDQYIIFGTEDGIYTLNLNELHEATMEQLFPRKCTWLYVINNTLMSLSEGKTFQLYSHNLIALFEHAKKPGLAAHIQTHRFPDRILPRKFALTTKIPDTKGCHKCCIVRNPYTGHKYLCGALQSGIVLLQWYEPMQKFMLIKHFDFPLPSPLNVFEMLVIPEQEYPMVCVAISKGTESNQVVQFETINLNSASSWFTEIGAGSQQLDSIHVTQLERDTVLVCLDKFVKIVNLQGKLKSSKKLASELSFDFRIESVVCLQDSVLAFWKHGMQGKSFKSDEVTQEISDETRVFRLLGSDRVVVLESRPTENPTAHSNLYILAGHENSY

SMILES | Kd
OCCn1cc(-c2cnc3nnn(Cc4ccc5ncccc5c4)c3n2)cn1 [PF-04217903] | > 30 µM (inactive)

These molecules were tested against T3, DNA replication licensing factor MCM4 (Homo sapiens, UniProt P33991).
T3 sequence (P33991 whole entry): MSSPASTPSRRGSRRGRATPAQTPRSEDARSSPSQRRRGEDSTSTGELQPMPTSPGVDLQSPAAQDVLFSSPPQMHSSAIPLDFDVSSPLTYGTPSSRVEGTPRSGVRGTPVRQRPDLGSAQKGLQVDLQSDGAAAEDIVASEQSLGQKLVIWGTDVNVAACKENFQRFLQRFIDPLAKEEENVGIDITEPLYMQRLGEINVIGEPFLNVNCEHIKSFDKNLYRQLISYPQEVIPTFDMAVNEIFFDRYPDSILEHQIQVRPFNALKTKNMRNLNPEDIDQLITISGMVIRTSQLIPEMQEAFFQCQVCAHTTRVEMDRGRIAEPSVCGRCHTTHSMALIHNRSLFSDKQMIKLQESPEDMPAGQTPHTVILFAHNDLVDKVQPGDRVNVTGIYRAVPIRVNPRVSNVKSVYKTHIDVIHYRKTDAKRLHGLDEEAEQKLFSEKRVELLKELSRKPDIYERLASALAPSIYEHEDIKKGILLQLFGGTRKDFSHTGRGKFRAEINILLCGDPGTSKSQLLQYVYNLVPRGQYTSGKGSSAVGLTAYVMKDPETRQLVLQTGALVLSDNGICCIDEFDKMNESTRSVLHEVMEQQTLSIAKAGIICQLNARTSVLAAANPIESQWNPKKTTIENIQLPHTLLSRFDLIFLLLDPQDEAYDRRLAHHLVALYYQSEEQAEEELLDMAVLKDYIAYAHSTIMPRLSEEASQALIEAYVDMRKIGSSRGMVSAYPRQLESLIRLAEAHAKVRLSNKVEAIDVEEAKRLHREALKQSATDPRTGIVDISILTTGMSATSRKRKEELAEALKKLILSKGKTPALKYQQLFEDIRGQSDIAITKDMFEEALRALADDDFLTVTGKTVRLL

SMILES | Kd
Cc1cn(-c2cc(NC(=O)c3ccc(C)c(Nc4nccc(-c5cccnc5)n4)c3)cc(C(F)(F)F)c2)cn1 [NILOTINIB] | > 30 µM (inactive)
OCCn1cc(-c2cnc3nnn(Cc4ccc5ncccc5c4)c3n2)cn1 [PF-04217903] | > 30 µM (inactive)
Nc1nc(N)c2nc(-c3cccc(O)c3)c(-c3cccc(O)c3)nc2n1 [TG100-115] | > 30 µM (inactive)

Each molecule was assayed against Protein-tyrosine kinase 6 (Homo sapiens, UniProt Q13882).
Sequence of Protein-tyrosine kinase 6 (Q13882 whole entry): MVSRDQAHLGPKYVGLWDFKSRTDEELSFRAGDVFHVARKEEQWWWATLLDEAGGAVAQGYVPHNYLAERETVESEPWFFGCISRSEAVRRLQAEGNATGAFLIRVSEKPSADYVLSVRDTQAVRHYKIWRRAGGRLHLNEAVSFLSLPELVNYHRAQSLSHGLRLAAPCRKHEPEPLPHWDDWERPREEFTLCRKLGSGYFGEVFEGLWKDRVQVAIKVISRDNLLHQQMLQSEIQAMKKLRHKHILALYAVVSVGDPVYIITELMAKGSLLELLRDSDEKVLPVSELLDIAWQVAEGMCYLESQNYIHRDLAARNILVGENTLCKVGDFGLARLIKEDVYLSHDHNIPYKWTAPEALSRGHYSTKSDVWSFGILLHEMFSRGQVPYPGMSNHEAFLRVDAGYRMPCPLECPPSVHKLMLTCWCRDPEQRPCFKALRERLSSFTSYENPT

SMILES | Kd
OCCn1cc(-c2cnc3nnn(Cc4ccc5ncccc5c4)c3n2)cn1 [PF-04217903] | > 30 µM (inactive)
Nc1nc(N)c2nc(-c3cccc(O)c3)c(-c3cccc(O)c3)nc2n1 [TG100-115] | > 30 µM (inactive)

The molecules below were run against T4, Ras-related protein Rab-27A (Homo sapiens, UniProt P51159).
T4 sequence (P51159 whole entry): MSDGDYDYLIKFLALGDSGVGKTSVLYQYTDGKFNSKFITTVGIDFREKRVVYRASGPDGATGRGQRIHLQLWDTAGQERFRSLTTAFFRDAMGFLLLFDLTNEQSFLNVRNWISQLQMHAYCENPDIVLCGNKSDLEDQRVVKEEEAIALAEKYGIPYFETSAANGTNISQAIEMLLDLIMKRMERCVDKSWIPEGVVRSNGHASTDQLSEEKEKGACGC

SMILES | Kd
Cc1cn(-c2cc(NC(=O)c3ccc(C)c(Nc4nccc(-c5cccnc5)n4)c3)cc(C(F)(F)F)c2)cn1 [NILOTINIB] | > 30 µM (inactive)
OCCn1cc(-c2cnc3nnn(Cc4ccc5ncccc5c4)c3n2)cn1 [PF-04217903] | > 30 µM (inactive)
Nc1nc(N)c2nc(-c3cccc(O)c3)c(-c3cccc(O)c3)nc2n1 [TG100-115] | > 30 µM (inactive)

Each molecule was assayed against Ras-related protein Rab-6A (Homo sapiens, UniProt P20340).
Sequence of Ras-related protein Rab-6A (P20340 whole entry): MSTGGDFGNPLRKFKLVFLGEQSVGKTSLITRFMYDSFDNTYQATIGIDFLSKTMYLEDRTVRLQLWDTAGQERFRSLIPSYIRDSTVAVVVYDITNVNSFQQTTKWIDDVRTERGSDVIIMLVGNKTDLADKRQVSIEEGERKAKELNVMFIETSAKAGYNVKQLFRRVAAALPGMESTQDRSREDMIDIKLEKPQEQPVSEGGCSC

SMILES | Kd
Cc1cn(-c2cc(NC(=O)c3ccc(C)c(Nc4nccc(-c5cccnc5)n4)c3)cc(C(F)(F)F)c2)cn1 [NILOTINIB] | > 30 µM (inactive)
OCCn1cc(-c2cnc3nnn(Cc4ccc5ncccc5c4)c3n2)cn1 [PF-04217903] | > 30 µM (inactive)
Nc1nc(N)c2nc(-c3cccc(O)c3)c(-c3cccc(O)c3)nc2n1 [TG100-115] | > 30 µM (inactive)

What follows are molecules tested against T5, ADP/ATP translocase 3 (Homo sapiens, UniProt P12236).
T5 sequence (P12236 whole entry): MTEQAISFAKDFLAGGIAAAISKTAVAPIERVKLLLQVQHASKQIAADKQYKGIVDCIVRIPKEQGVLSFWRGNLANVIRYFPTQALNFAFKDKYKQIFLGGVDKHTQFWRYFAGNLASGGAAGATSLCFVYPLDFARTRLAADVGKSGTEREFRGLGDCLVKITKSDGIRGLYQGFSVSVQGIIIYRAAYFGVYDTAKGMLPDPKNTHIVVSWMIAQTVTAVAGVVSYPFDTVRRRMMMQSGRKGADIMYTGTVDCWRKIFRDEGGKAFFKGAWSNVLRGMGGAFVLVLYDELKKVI

SMILES | Kd
Cc1cn(-c2cc(NC(=O)c3ccc(C)c(Nc4nccc(-c5cccnc5)n4)c3)cc(C(F)(F)F)c2)cn1 [NILOTINIB] | > 30 µM (inactive)
OCCn1cc(-c2cnc3nnn(Cc4ccc5ncccc5c4)c3n2)cn1 [PF-04217903] | > 30 µM (inactive)
Nc1nc(N)c2nc(-c3cccc(O)c3)c(-c3cccc(O)c3)nc2n1 [TG100-115] | > 30 µM (inactive)

Each molecule was assayed against Proto-oncogene tyrosine-protein kinase Src (Homo sapiens, UniProt P12931).
Sequence of Proto-oncogene tyrosine-protein kinase Src (P12931 2-536 limits assumed): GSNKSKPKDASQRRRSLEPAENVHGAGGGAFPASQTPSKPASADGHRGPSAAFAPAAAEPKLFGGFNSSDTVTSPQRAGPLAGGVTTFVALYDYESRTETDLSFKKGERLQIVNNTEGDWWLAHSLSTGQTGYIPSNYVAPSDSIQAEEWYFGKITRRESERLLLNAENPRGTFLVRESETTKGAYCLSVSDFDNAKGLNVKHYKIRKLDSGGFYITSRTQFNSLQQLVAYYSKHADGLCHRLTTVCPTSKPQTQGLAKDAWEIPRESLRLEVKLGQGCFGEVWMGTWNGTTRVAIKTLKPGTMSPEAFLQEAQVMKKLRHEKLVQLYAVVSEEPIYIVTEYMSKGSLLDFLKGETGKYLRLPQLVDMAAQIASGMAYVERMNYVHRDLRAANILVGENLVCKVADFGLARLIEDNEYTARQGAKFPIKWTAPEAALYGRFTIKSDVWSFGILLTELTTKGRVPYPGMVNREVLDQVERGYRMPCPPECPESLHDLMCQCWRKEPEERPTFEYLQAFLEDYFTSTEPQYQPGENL

SMILES | Kd
OCCn1cc(-c2cnc3nnn(Cc4ccc5ncccc5c4)c3n2)cn1 [PF-04217903] | > 30 µM (inactive)

What follows are molecules tested against Serine/threonine-protein kinase 16 (Homo sapiens, UniProt O75716).
Sequence of Serine/threonine-protein kinase 16 (O75716 whole entry): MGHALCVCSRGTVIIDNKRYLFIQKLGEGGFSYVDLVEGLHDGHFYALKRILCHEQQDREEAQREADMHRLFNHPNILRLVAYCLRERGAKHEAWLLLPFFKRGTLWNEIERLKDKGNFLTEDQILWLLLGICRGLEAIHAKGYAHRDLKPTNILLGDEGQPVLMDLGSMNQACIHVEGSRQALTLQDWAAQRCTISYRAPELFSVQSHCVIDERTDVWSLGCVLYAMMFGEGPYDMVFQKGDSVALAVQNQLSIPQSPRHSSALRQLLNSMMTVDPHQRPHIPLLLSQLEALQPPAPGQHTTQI

SMILES | Kd
OCCn1cc(-c2cnc3nnn(Cc4ccc5ncccc5c4)c3n2)cn1 [PF-04217903] | > 30 µM (inactive)

What follows are molecules tested against Tyrosine-protein kinase Yes (Homo sapiens, UniProt P07947).
Sequence of Tyrosine-protein kinase Yes (P07947 whole entry): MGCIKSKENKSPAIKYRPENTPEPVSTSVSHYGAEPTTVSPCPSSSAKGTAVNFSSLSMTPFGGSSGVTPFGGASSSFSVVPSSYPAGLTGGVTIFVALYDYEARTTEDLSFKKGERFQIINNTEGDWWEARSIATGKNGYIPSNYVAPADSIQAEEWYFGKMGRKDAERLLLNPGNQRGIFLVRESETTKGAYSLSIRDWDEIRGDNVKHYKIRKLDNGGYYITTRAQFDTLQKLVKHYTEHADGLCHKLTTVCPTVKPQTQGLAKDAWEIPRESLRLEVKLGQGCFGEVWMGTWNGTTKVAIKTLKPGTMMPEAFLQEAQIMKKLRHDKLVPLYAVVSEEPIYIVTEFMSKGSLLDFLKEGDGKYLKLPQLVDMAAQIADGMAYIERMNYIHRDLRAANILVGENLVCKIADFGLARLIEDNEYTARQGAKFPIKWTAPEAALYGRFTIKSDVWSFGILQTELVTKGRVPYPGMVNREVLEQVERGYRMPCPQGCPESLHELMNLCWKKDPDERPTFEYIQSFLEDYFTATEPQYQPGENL

SMILES | Kd
OCCn1cc(-c2cnc3nnn(Cc4ccc5ncccc5c4)c3n2)cn1 [PF-04217903] | > 30 µM (inactive)
